Among the data in ChEMBL document CHEMBL3991601, “The target landscape of clinical kinase drugs” (Science, 2017) are Kd values, retold here.

SMILES strings stand for the structures. Activity calls are given as the source filed them.

Experiment [1] deals with T1, dCTP pyrophosphatase 1 (Homo sapiens, UniProt Q9H773).
T1 sequence (Q9H773 whole entry): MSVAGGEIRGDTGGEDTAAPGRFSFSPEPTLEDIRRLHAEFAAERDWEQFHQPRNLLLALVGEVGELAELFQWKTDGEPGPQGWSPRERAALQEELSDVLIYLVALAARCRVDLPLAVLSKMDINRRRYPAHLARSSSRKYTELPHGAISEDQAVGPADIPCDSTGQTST

Experiment [2] has as its target Cyclin-dependent kinase 6 (Homo sapiens, UniProt Q00534).
The target of experiment [3] is T2, Succinate--CoA ligase [ADP-forming] subunit beta, mitochondrial (Homo sapiens, UniProt Q9P2R7).
T2 sequence (Q9P2R7 whole entry): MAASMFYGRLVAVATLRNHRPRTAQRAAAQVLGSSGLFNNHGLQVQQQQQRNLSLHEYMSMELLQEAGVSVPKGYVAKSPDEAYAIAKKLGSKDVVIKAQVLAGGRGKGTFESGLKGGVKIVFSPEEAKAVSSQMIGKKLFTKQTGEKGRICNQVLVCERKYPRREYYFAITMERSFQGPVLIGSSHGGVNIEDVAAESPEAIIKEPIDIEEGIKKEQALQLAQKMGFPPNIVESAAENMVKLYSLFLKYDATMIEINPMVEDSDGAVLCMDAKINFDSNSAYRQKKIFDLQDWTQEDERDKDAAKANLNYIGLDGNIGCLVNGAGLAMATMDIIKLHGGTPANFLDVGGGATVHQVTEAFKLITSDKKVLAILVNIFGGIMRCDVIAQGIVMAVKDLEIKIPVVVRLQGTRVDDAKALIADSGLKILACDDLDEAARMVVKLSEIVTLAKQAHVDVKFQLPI

The target in experiment [4] is Inosine-5'-monophosphate dehydrogenase 2 (Homo sapiens, UniProt P12268).
The target in experiment [5] is Tyrosine-protein kinase Fer (Homo sapiens, UniProt P16591).
Chain of Tyrosine-protein kinase Fer (P16591 whole entry, canonical isoform): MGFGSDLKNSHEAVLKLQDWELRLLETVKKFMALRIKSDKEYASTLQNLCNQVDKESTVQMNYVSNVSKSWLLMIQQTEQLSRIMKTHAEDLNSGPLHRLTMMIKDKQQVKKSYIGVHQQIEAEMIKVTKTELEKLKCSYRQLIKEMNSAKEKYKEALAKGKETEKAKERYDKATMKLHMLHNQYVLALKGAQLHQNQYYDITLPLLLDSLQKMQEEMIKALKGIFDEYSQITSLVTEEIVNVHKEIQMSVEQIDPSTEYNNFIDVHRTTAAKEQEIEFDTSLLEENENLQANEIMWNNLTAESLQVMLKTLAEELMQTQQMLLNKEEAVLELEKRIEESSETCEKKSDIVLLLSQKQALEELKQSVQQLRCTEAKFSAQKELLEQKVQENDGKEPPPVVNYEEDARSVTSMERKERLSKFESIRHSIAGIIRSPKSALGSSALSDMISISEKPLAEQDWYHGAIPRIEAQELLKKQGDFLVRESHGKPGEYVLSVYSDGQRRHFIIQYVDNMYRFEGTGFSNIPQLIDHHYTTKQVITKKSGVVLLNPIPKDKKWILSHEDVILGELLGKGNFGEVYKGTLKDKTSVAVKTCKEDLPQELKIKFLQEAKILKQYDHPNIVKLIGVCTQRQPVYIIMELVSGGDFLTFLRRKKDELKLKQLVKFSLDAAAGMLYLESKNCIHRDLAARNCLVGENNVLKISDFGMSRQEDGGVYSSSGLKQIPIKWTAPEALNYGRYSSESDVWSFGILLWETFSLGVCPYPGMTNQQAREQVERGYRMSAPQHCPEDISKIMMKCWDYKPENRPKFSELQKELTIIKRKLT
Experiment [6] concerns the target Casein kinase I isoform delta (Homo sapiens, UniProt P48730).
The target in experiment [7] is T3, RNA cytidine acetyltransferase (Homo sapiens, UniProt Q9H0A0).
T3 sequence (Q9H0A0 whole entry): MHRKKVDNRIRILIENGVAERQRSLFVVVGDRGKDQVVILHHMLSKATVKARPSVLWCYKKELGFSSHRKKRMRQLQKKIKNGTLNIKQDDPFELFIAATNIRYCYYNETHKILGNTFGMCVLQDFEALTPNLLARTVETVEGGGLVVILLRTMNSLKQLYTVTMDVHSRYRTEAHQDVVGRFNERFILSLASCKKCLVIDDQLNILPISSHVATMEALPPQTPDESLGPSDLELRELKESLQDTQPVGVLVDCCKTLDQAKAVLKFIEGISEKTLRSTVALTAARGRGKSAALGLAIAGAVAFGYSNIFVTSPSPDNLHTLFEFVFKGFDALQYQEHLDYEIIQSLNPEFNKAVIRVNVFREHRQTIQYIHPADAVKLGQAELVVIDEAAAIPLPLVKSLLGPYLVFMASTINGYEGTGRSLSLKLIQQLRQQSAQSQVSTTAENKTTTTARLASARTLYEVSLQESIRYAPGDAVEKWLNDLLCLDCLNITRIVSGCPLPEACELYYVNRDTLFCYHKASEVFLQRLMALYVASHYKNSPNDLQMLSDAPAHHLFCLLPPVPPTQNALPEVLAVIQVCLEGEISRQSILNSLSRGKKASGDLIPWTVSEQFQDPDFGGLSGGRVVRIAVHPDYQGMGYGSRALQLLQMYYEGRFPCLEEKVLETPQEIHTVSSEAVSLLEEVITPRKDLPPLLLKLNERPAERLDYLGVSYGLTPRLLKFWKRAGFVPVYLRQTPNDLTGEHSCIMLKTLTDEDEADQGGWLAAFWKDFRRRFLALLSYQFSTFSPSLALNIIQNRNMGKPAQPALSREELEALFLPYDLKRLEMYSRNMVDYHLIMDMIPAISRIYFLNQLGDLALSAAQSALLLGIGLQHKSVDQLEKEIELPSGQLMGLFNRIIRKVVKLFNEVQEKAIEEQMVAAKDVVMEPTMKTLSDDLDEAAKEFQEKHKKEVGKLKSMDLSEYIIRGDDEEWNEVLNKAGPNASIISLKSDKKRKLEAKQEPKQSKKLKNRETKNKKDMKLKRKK

For experiment [8], the target named is T4, Septin-9 (Homo sapiens, UniProt Q9UHD8).
T4 sequence (Q9UHD8 whole entry): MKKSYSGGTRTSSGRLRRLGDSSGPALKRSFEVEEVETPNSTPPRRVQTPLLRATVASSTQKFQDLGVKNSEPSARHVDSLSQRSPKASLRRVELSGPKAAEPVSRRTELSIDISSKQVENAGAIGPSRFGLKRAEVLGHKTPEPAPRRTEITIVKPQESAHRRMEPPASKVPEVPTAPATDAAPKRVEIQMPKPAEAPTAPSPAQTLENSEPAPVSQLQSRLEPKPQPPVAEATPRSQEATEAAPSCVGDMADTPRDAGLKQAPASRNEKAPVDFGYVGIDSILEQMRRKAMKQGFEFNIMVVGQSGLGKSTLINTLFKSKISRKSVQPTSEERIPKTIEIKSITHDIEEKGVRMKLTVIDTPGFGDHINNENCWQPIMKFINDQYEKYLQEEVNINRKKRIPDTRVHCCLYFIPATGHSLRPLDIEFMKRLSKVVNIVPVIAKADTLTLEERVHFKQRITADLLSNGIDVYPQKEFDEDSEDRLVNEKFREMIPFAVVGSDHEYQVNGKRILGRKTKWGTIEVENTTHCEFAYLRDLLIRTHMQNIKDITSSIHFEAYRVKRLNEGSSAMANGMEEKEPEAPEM

For experiment [9], the target named is Structural maintenance of chromosomes protein 2 (Homo sapiens, UniProt O95347).
Chain of Structural maintenance of chromosomes protein 2 (O95347 whole entry): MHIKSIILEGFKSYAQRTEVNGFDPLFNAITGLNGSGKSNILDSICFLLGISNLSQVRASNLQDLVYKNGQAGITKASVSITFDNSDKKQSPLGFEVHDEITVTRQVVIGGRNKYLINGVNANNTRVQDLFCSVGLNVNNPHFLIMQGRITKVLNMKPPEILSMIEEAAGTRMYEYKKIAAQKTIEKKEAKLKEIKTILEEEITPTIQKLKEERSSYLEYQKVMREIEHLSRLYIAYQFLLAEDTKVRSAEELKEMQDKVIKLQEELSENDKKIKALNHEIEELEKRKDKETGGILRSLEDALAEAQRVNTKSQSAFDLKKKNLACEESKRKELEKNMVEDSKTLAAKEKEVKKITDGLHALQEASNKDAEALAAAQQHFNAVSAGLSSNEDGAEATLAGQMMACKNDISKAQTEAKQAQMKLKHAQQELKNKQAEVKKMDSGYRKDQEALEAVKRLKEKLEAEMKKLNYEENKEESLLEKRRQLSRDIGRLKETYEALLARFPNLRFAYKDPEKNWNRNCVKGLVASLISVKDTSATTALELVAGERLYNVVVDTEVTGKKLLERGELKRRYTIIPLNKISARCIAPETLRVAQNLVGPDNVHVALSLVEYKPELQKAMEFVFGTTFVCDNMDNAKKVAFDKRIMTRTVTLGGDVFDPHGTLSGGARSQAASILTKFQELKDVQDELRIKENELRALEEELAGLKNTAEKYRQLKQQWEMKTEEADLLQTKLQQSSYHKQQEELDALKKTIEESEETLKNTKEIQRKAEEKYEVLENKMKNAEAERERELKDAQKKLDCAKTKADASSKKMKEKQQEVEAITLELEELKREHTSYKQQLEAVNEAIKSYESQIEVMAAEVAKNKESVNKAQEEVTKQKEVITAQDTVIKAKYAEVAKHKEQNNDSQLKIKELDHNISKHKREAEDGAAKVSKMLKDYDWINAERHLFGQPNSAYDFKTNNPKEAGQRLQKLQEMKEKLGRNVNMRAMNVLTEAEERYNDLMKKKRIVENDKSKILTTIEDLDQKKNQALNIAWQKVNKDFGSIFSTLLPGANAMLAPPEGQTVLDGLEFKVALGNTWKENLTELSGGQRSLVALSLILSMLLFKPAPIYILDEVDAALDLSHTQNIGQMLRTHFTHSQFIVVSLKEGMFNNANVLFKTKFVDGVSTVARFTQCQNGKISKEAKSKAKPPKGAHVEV
Experiment [10] concerns the target MAP/microtubule affinity-regulating kinase 3 (Homo sapiens, UniProt P27448).
Experiment [11] has as its target Platelet-derived growth factor receptor beta (Homo sapiens, UniProt P09619).
Note: in the data inactive means no Kd found up to 30 µM.

Chain of Cyclin-dependent kinase 6 (Q00534 whole entry): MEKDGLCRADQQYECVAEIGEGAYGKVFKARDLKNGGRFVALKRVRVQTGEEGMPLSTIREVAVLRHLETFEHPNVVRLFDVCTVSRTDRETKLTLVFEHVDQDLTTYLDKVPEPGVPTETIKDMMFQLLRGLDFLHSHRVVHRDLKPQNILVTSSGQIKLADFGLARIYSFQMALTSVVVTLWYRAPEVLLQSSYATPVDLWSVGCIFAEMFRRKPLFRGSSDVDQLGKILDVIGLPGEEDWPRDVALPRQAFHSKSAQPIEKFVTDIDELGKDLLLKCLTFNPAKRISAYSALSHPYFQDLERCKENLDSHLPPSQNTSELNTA
Chain of Casein kinase I isoform delta (P48730 whole entry, canonical isoform): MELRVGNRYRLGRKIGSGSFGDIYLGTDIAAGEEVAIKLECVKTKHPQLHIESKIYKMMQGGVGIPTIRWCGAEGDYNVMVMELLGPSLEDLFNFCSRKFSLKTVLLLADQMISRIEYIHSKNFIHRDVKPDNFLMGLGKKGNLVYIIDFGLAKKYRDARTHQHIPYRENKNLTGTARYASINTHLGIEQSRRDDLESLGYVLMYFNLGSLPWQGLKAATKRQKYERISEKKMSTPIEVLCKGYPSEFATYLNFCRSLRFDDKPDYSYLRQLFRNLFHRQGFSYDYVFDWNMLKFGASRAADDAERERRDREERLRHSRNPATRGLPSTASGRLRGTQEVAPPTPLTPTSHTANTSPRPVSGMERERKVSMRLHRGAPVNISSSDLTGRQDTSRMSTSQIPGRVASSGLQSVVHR
Chain of MAP/microtubule affinity-regulating kinase 3 (P27448 whole entry): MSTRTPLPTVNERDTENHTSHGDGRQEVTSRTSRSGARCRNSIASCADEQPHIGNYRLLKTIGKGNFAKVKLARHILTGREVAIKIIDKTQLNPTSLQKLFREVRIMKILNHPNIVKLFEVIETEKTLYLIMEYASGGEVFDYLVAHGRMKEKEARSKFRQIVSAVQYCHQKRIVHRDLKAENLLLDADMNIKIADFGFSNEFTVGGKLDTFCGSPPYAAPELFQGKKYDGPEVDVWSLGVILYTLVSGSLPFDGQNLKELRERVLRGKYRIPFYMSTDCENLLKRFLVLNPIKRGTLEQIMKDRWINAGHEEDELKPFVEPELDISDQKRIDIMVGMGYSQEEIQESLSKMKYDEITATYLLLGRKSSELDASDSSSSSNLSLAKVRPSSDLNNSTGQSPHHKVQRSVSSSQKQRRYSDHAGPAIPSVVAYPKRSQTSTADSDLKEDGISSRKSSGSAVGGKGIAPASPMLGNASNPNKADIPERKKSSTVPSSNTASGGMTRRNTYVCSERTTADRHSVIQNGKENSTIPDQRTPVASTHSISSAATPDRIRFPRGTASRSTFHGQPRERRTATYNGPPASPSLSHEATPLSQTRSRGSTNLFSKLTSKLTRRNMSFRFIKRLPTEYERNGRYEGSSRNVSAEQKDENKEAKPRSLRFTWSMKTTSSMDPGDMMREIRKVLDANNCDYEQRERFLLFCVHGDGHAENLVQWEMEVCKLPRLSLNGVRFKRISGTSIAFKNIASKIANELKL
Chain of Platelet-derived growth factor receptor beta (P09619 whole entry): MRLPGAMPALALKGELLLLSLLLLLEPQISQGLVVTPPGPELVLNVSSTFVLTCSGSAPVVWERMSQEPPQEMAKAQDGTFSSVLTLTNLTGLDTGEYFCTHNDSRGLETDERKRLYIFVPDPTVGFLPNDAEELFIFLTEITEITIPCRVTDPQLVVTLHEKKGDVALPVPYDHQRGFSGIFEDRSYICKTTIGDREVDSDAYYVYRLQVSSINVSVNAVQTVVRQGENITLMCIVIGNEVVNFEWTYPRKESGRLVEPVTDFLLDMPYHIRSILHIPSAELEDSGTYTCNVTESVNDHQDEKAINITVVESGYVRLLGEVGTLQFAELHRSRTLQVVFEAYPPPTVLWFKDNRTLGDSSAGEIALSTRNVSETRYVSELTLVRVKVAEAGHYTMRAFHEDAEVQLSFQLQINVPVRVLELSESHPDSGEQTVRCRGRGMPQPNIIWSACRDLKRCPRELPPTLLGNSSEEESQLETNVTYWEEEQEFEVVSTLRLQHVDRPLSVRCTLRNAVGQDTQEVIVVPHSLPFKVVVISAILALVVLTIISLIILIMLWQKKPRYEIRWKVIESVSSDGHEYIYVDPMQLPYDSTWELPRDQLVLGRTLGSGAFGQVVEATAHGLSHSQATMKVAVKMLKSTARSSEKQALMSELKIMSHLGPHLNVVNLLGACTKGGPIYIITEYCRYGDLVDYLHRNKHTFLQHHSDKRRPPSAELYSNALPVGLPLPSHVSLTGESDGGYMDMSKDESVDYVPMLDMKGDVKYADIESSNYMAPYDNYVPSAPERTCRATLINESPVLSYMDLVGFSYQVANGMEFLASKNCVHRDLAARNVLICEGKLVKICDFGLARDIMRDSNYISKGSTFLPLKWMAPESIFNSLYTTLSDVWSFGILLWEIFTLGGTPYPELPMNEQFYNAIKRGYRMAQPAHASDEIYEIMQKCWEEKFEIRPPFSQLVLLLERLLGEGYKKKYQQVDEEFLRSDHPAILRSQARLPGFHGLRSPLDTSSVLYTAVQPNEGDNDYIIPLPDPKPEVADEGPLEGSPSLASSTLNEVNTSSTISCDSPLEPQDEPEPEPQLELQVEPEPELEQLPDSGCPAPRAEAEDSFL

Turning to `Cn1c(=O)n(-c2ccc(C(C)(C)C#N)cc2)c2c3cc(-c4cnc5ccccc5c4)ccc3ncc21` [DACTOLISIB], the Kd in experiment [1], in [2], in experiment [3], in [4], in experiment [5] and in experiment [6] was > 30 µM (inactive) in each case. Moreover, the Kd in experiment [7], in experiment [8] and in experiment [9] was > 30 µM (inactive) in each case.

`C[C@@]1(C(=O)Nc2ccc(F)nc2)CCCN1c1nc(Nc2cc(C3CC3)n[nH]2)c2cccn2n1` [BMS-754807]: the Kd in [1], in [2], in experiment [3], in experiment [4], in experiment [7] and in experiment [8] was > 30 µM (inactive) throughout. The Kd in [9] was > 30 µM (inactive).

As for `CN(c1ncccc1CNc1nc(Nc2ccc3c(c2)CC(=O)N3)ncc1C(F)(F)F)S(C)(=O)=O` [PF-00562271], the Kd in [1], in experiment [2], in [3], in experiment [4], in experiment [7] and in experiment [8] was > 30 µM (inactive) each time. Besides, the Kd in [9] was > 30 µM (inactive).

For the molecule `CN1CCN(c2nc(C3=C(c4c[nH]c5ccccc45)C(=O)NC3=O)c3ccccc3n2)CC1` [SOTRASTAURIN], the Kd in [10], in experiment [1], in experiment [2], in experiment [3], in [5] and in [6] was > 30 µM (inactive) throughout. Besides, the Kd in experiment [7], in experiment [8] and in experiment [9] was > 30 µM (inactive) in each case.

With `COc1cc2c(Oc3ccc4[nH]c(C)cc4c3F)ncnc2cc1OCCCN1CCCC1` [CEDIRANIB], the Kd in experiment [1], in [2], in [3], in [4], in experiment [7] and in experiment [8] was > 30 µM (inactive) each time. In addition, in experiment [9], the Kd was > 30 µM (inactive).

Regarding `Cn1cnc2c(F)c(Nc3ccc(Br)cc3Cl)c(C(=O)NOCCO)cc21` [SELUMETINIB], the Kd in experiment [1], in experiment [2], in experiment [3], in [4], in [7] and in experiment [8] was > 30 µM (inactive) each time. For the same molecule, binding in experiment [9] was characterised by a dissociation constant (Kd) of 0.209 µM.

`COc1cc2c(N3CCN(C(=O)Nc4ccc(OC(C)C)cc4)CC3)ncnc2cc1OCCCN1CCCCC1` [TANDUTINIB]: the Kd is > 30 µM (inactive) in [1]; > 30 µM (inactive) in [2]; > 30 µM (inactive) in experiment [7]; 0.01 µM in experiment [8]; > 30 µM (inactive) in [9].

With `CCN(CCCOc1ccc2c(Nc3cc(CC(=O)Nc4cccc(F)c4)n[nH]3)ncnc2c1)CCOP(=O)(O)O` [BARASERTIB], the Kd in [1], in experiment [2], in [3], in experiment [4], in experiment [5] and in experiment [6] was > 30 µM (inactive) throughout. The Kd in experiment [7], in experiment [8] and in experiment [9] was > 30 µM (inactive) in each case.

Take `CC1(C)CNc2cc(NC(=O)c3cccnc3NCc3ccncc3)ccc21` [MOTESANIB]: the Kd in [1], in experiment [2], in [3], in experiment [4], in experiment [7] and in [8] was > 30 µM (inactive) in each case. Further, the Kd in experiment [9] is > 30 µM (inactive).

For `Cc1cc(C(=O)Nc2cc(Oc3ccc4nc(NC(=O)C5CC5)cn4n3)ccc2C)n(C)n1` [TAK-593], the Kd in experiment [10], in [1], in [2], in experiment [3], in experiment [4] and in [5] was > 30 µM (inactive) in each case. Besides, the Kd in experiment [6], in experiment [7], in experiment [8] and in experiment [9] was > 30 µM (inactive) throughout.

With `CN(C)C/C=C/C(=O)Nc1cc2c(Nc3ccc(F)c(Cl)c3)ncnc2cc1O[C@H]1CCOC1` [AFATINIB], the Kd in [1], in experiment [2], in experiment [4], in [7], in experiment [8] and in experiment [9] was > 30 µM (inactive) each time.

Turning to `C[C@]1(O)C[C@@H](c2nc(-c3ccc4ccc(-c5ccccc5)nc4c3)c3c(N)nccn32)C1` [LINSITINIB], the Kd in experiment [1], in experiment [2], in experiment [3], in experiment [4], in experiment [11] and in experiment [7] was > 30 µM (inactive) each time. Further, the Kd in experiment [8] and in experiment [9] was > 30 µM (inactive) each time.

For the molecule `CC1(COc2ccc3c(c2)ncn3-c2ccc3cccc(N4CCC(N)CC4)c3n2)COC1` [CRENOLANIB], the Kd was 0.22 µM (active) in [10]; > 30 µM (inactive) in experiment [1]; > 30 µM (inactive) in experiment [2]; 0.007 µM in experiment [3]; > 30 µM (inactive) in [4]; > 30 µM (inactive) in experiment [5]. For the same molecule, the Kd in [6], in experiment [7], in experiment [8] and in experiment [9] was > 30 µM (inactive) each time.
